Consider 29 compounds from patent US20250241905A1, “3-BETA-HSD1 INHIBITORS AND COMPOSITIONS AND USES THEREOF” (The Cleveland Clinic Foundation, priority 2022, published 2025).

The subject of assay [1] is C4-2 flank tumor. The experiment in a line: CRPC C4-2 flank tumor model in mice. The class given is in vivo. The note with it: orchiectomized NSG male mice with DHEA pellets, 100 mg/kg in water with 20% Captisol, oral gavage twice daily. The method, then:
The mouse study was performed under a protocol approved by the Institutional Animal Care and Use Committee of the Cleveland Clinic Lerner Research Institute. All NOD scid gamma (NSG) male mice (6 to 8 weeks old) were purchased from the Jackson Laboratory. 10^7 C4-2 cells were injected subcutaneously into mice with matrigel (total injection volume 100 μL). Once tumors reached 100 mm^3 (length×width×height×0.52), mice were surgically orchiectomized and implanted with 5 mg 90-day sustained-release DHEA pellets (Innovative Research of America) to mimic human adrenal DHEA production in patients with CRPC, then the mice were arbitrarily (but not strictly randomized) assigned to vehicle (n=6), Compound 1 (n=6), or Compound 5 (n=6). The mice were given vehicle, Compound 1 (100 mg/kg in water with 20% Captisol), or Compound 5 (100 mg/kg in water with 20% Captisol) by oral gavage twice daily.

The test system of assay [2] is Androstenedione synthesis in C4-2 prostate cancer cells. The experiment in a line: Cell line steroid metabolism: androstenedione synthesis inhibition (HPLC, [3H]-labeled androgens). The class given is cell-based. The note with it: Homo sapiens, serum-free RPMI-1640, [3H]-labeled androgens 25 nM. The method, then:
Cells were seeded and incubated in 12-well plates with 0.15 million cells/well in RPMI-1640 medium with 10% FBS for ˜24 h at 37° C. Culture medium was then replaced with serum-free RPMI-1640 and a mixture of radioactive ([3H]-labeled) and non-radioactive androgens (final concentration, 25 nM; ˜600,000 cpm/well; PerkinElmer, Waltham, MA) plus inhibitor compounds at specified concentrations was added. […]
High-performance liquid chromatography (HPLC) analysis was performed on a Waters 1525 HPLC system (Waters Corp., Milford, MA). Dried samples were reconstituted in 50% methanol and injected into the HPLC. Steroids were separated on a Luna 150×4.6 mm, 3.0 μm particle size C18 reverse-phase column (Phenomenex, Torrance, CA) with a methanol/water gradient at 50° C. Column effluent was mixed with Liquiscint scintillation cocktail (National Diagnostics, Atlanta, GA) and analyzed using a β-RAM model 4 in-line radioactivity detector (LabLogic, Brandon, FL).

Assay [3] relates to C4-2 prostate cancer cells. The experiment in a line: Cellular viability of C4-2 cells (CellTiter-Glo). The conditions noted are these: 6 days, 1% FBS + DHEA, read-out: GI50 (μM), growth inhibition. The class given is cell-based, human. How it is done:
C4-2 cells were routinely maintained in RPMI+2 mM L-Glutamine+1× Anti-Anti+10% FBS. C4-2 cells were harvested by trypsinization for 90 seconds in 0.25% Trypsin-EDTA, counted with a Vi-Cell Blu cell counter (Beckman Coulter), and diluted into Complete Viability Media (RPMI+2 mM L-Glutamine+1× Anti-Anti+1% FBS+[…]) at a density of 10,000 cells/mL. 12-point, two-fold dilution series of test compounds (starting at 10 mM) were prepared in 100% DMSO, and then 450 nL of the dilution series were stamped in triplicate into 384-well, white, opaque bottom, TC-treated CulturPlate™ (Perkin Elmer 6007680) using acoustic dispensing (Labcyte Echo 550). 50 μL/well of the diluted C4-2 cells (500 cells/well) were added directly to the plates containing dispensed compounds, yielding a final [DMSO] of 0.9% and a final top [compound] of 90 μM. The plates were centrifuged for 1 min at 500×g and then incubated for 6 days at 37° C., 5% CO2. Cell density at the end of the assay was measured using 35 μL/well CellTiter-Glo® (Promega) per the manufacturer's recommendations, and total luminescence was measured on a Cytation 5 plate reader. Raw luminescence values were normalized from 0 (empty Viability Media+0.9% DMSO, no cells) to 100 (Cells+0.9% DMSO, maximum proliferation), triplicate values were averaged, and dose-response curves were fit and G150 values extracted using variable slope nonlinear regression in GraphPad Prism.

Assay [4] concerns the target human 3β-HSD1. The experiment in a line: 3β-HSD1 inhibition, colorimetric NADH detection assay. The class given is biochemical. The conditions noted are these: purified recombinant human 3β-HSD1, 50 μM DHEA, 2 mM NAD+, 1 hour, room temperature, duplicate 10-point CRC; read-out: IC50 (nM), in vitro NADH inhibition. The source says: Enzymatic turnover was quantified through NADH generation by purified, recombinant human 3β-HSD1 (expressed in Sf9 insect cells) in the presence of steroidal substrate trans-Dehydroandrosterone (DHEA) that was placed slightly above the experimentally determined Km and saturating amounts of co-factor Nicotinamide adenine dinucleotide (NAD^+). The sequence of recombinant human 3β-HSD1 used is […] […] […] […] […] […] […] (SEQ ID NO: 3). DHEA and NAD+ were enzymatically converted to androstenedione and NADH, respectively. Final NADH concentrations were spectroscopically quantified using a commercially available Amplite™ Colorimetric NADH Assay Kit which utilizes an NADH probe with an absorbance wavelength of 460 nm. Enzymatic assays with a final volume of 25 μL were ran in a 384-well, Greiner Bio-One UV-STAR® assay plate in 50 mM TRIS pH 8.0 assay buffer. […] Compound stocks at 10 mM in DMSO were serial diluted 5-fold in DMSO to generate an ECHO® compatible source plate. 125 nL of DMSO, Trilostane, or serial diluted compounds were then acoustically transferred into an empty UV-STAR® assay plate to give a final assay concentration of 0.5% v/v DMSO. The stamp volume and dilution scheme can be adjusted to accommodate compound potency. The assay can tolerate up to a 5% v/v DMSO final assay concentration. 15 μL of 1 μg purified 3β-HSD1 and 50 μM DHEA (final assay volume concentration) was dispensed per well into the stamped plate, centrifuged for 1 minute at 1000 RPM, covered, and allowed to incubate for 15 minutes at room temp. Enzymatic reactions were initiated upon the addition of 10 μL of NAD^+ diluted in assay buffer to give a final assay volume concentration of 2 mM. The assay plate was centrifuged for 1 minute at 1000 RPM, covered, and incubated at room temperature for 1 hour. 25 μL Amplite™ Colorimetric NADH Assay Kit detection solution (prepared as recommended) was added to all reaction wells, the plate centrifuged for 1 minute at 1000 RPM, covered, and incubated for 15 minutes. Final absorbance values (λ=460 nm) are spectroscopically determined on BioTek® Cytation5 or Synergy4 plate readers. […] From the background subtracted values, the non-inhibited enzyme signal (DMSO treated) was averaged from 32 control reactions. The percent inhibition value was calculated by: % inhibition=(1−((background subtracted inhibited reaction)/(background subtracted non-inhibited average)))*100. The resulting percent inhibition was then plotted in duplicate against corresponding concentration values. The resulting CRCs were fit with a four parameter, variable slope log (inhibitor) vs response equation where Y=bottomvalue+ (topvalue−bottomvalue)/(1+10^((log IC50−X)*Hillslope)) to determine the IC50 values for tested compounds.

Like-named read-outs stand apart in the source and are kept apart here.

human 3β-HSD1, sequence (P14060 2-373 limits assumed): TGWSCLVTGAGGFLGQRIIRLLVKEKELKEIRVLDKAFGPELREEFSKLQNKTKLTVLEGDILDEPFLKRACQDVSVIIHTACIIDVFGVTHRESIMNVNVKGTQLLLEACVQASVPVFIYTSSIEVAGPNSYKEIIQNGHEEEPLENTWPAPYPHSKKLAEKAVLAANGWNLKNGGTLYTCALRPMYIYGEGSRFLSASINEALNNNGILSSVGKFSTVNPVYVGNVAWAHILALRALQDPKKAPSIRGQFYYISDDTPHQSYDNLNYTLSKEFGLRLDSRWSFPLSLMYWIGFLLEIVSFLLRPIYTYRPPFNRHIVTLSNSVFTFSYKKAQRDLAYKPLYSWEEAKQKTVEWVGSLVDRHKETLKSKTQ

Take `O=C1CCCc2nc(-c3cc(F)c(O)c(F)c3)ccc21` [Compound 1, 2-(3,5-difluoro-4-hydroxyphenyl)-7,8-dihydroquinolin-5(6H)-one]: the “tumor volume compared to vehicle control” value in assay [1] is “reduction in tumor volume”. Also, the IC50 in assay [2] came out at 83 nM; in assay [4] it was 62 nM. The GI50 in assay [3] (Homo sapiens, 144 h) is 53 µM. For the compound `O=C1CCCc2nc(-c3ccc(O)c(F)c3)ccc21` [Compound 2, 2-(3-fluoro-4-hydroxyphenyl)-7,8-dihydroquinolin-5(6H)-one], the figures for the IC50 in assay [2] and in assay [4] were 14 nM and 45 nM, respectively. In addition, the GI50 in assay [3] (Homo sapiens, 144 h) was 59 µM. Consider `CC1(C)CCc2nc(-c3cc(F)c(O)c(F)c3)ccc2C1=O` [Compound 5, 2-(3,5-difluoro-4-hydroxyphenyl)-6,6-dimethyl-7,8-dihydroquinolin-5(6H)-one], for which the “tumor volume compared to vehicle control” value in assay [1] is reported as “reduction in tumor volume”. Besides, the IC50 amounted to 1.4 nM in assay [2] and 71 nM in assay [4]. In addition, in assay [3] (Homo sapiens, 144 h), the GI50 was 26 µM. Consider `CC1CCc2nc(-c3cc(F)c(O)c(F)c3)ccc2C1=O` (stereo not shown) [Compound 7, 2-(3,5-difluoro-4-hydroxyphenyl)-6-methyl-7,8-dihydroquinolin-5(6H)-one], for which the IC50 in assay [2] was 7.2 nM; in assay [4], 64 nM. Further, the concentration for 50% growth inhibition (GI50) in assay [3] (Homo sapiens, 144 h) was determined as 37 µM. For the compound `CCC1CCc2nc(-c3cc(F)c(O)c(F)c3)ccc2C1=O` (stereo not shown) [Compound 8, 2-(3,5-difluoro-4-hydroxyphenyl)-6-ethyl-7,8-dihydroquinolin-5(6H)-one], the GI50 in assay [3] (Homo sapiens, 144 h) is 16 µM. Moreover, the IC50 in assay [4] is 105 nM. On to `O=C1c2ccc(-c3cc(F)c(O)c(F)c3)nc2CCC1Cc1ccccc1` (stereo not shown) [Compound 9, 6-benzyl-2-(3,5-difluoro-4-hydroxyphenyl)-7,8-dihydroquinolin-5(6H)-one], for which the IC50 in assay [2] was 10 nM; in assay [4], 37 nM. In addition, the 50% growth inhibitory concentration (GI50) in assay [3] (Homo sapiens, 144 h) is 6 µM. For `O=C1c2ccc(-c3cc(F)c(O)c(F)c3)nc2CCC1c1ccccc1` (stereo not shown) [Compound 10, 2-(3,5-difluoro-4-hydroxyphenyl)-6-phenyl-7,8-dihydroquinolin-5(6H)-one], the GI50 in assay [3] (Homo sapiens, 144 h) amounted to 10 µM. Moreover, the half-maximal inhibitory concentration (IC50) in assay [4] came to 79 nM. In the case of `O=C1c2ccc(-c3cc(F)c(O)c(F)c3)nc2CCC12CC2` [Compound 11], the IC50 is 4.8 nM in assay [2] and 68 nM in assay [4]. Further, the GI50 in assay [3] (Homo sapiens, 144 h) came to 10 µM.

On to `CC1(C)CCc2nc(-c3cc(F)c(O)c(F)c3)ccc2C1O` (stereo not shown) [Compound 12], for which, in assay [3] (Homo sapiens, 144 h), the GI50 stood at 61 µM. The IC50 in assay [4] was found to be 2560 nM.

Consider `CC1(C)CCc2nc(-c3cc(F)c(O)c(F)c3)ccc2C1(C)O` (stereo not shown) [Compound 16], for which, in assay [3] (Homo sapiens, 144 h), the GI50 stood at 20 µM. The IC50 in assay [4] stood at 376 nM.

Turning to `CC1(C)CCc2nc(-c3cc(F)c(O)c(F)c3)ccc2C1(O)C1CC1` (stereo not shown) [Compound 20], the GI50 in assay [3] (Homo sapiens, 144 h) worked out at 30 µM. The 50% inhibitory concentration (IC50) in assay [4] was determined as 331 nM. In the case of `CC1(C)CCc2nc(-c3cc(F)c(O)cc3F)ccc2C1=O` [Compound 25], the values for the half-maximal inhibitory concentration (IC50) in assay [2] and in assay [4] were 1 nM and 84 nM, respectively.

`O=C1c2ccc(-c3cc(F)c(O)c(F)c3)nc2CCC1(F)F` [Compound 41]: the IC50 turned out to be 68 nM in assay [2] and 79 nM in assay [4]. The corresponding values for `CC[C@@]1(C)CCc2nc(-c3cc(F)c(O)c(F)c3)ccc2C1=O` [Compound 55] are 0.7 nM and 89 nM. Regarding `CCC1(CC)CCc2nc(-c3cc(F)c(O)c(F)c3)ccc2C1=O` [Compound 59], the IC50 in assay [2] amounted to 3.8 nM; in assay [4], 71 nM. Take `COCCN1CC(C)(C)C(=O)c2ccc(-c3cc(F)c(O)c(F)c3)nc21` [Compound 83]: the half-inhibitory concentration (IC50) in assay [4] amounted to 556 nM. The same measure, in the same setting: to `CC1(C)CCc2nc(-c3ccc(O)c(F)c3)ncc2C1=O` [Compound 84] belongs 288 nM. Same read-out and setting: the result for `CC1(C)CCc2nc(-c3cc(F)c(O)cc3F)ncc2C1=O` [Compound 85] reads 1540 nM; that for `CC1(C2(O)COC2)CCc2nc(-c3cc(F)c(O)c(F)c3)ccc2C1=O` (stereo not shown) [Compound 86], 1420 nM. In the case of `COC1(C(C)C)CCCc2nc(-c3cc(F)c(O)c(F)c3)ccc21` (stereo not shown) [Compound 87], the IC50 in assay [4] amounted to 45 nM.

Consider `CC1(C(F)(F)C(F)(F)F)CCc2nc(-c3cc(F)c(O)c(F)c3)ccc2C1=O` (stereo not shown) [Compound 88], for which, in assay [4], the IC50 was determined as 78 nM. The same measure, in the same setting: to `CC1(CC(F)(F)F)CCc2nc(-c3cc(F)c(O)c(F)c3)ccc2C1=O` (stereo not shown) [Compound 89] belongs 188 nM; to `CCOC1(c2ccccc2)CCCc2nc(-c3cc(F)c(O)c(F)c3)ccc21` (stereo not shown) [Compound 90], 52 nM; to `COC1(c2cccnc2)CCCc2nc(-c3cc(F)c(O)c(F)c3)ccc21` (stereo not shown) [Compound 91], 25 nM.

As for `Oc1c(F)cc(-c2ccc3c(n2)CCCC3(O)c2cccnc2)cc1F` (stereo not shown) [Compound 92], in assay [4], the IC50 turned out to be 68 nM. Still for that read-out and setting: to `COC1(c2ccccn2)CCCc2nc(-c3cc(F)c(O)c(F)c3)ccc21` (stereo not shown) [Compound 93] belongs 131 nM; to `Oc1c(F)cc(-c2ccc3c(n2)CCCC3(O)c2ccccn2)cc1F` (stereo not shown) [Compound 94], 238 nM; to `COC1(c2ncco2)CCCc2nc(-c3cc(F)c(O)c(F)c3)ccc21` (stereo not shown) [Compound 95], 100 nM. Consider `C[C@]12CCC(=O)C=C1CC[C@@H]1[C@@H]2CC[C@]2(C)C(c3cccnc3)=CC[C@@H]12` [D4-Abiraterone, reference compound], for which the GI50 in assay [3] was 2.4 ± 0.4 µM.
